We go through 13 compounds from paper PMC6366411, “Novel 2-indolinones containing a sulfonamide moiety as selective inhibitors of candida β-carbonic anhydrase enzyme” (Journal of Enzyme Inhibition and Medicinal Chemistry, 2019).

Each structure is given as a SMILES string.

The target of this experiment is T1, CgNce103 (Nakaseomyces glabratus, UniProt Q6FTL6).
T1 construct: gene NCE103; enzyme preparation, host and tags not described
T1 sequence (Q6FTL6 1-219): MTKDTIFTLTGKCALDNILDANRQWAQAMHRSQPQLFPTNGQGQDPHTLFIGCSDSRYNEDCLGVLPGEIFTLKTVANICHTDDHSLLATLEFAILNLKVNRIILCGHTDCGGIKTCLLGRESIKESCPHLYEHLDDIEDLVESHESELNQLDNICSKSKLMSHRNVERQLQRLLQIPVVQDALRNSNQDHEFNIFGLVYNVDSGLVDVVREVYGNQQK
The experiment can be described thus: stopped-flow CO2 hydration assay. Type of experiment: biochemical.
What is called Ki is a dissociation constant, usually derived from enzyme kinetics or from competition with a known ligand. Higher therefore signals lower affinity. Regarding `NS(=O)(=O)c1ccc(NC(=S)N/N=C2\C(=O)Nc3ccccc32)cc1` [4a, 1H-indole-2,3-dione 3-[N-(4-sulfamoylphenyl)thiosemicarbazone], R = H], affinity was put at a Ki of 63.9 nM. For `Cc1ccc2c(c1)/C(=N/NC(=S)Nc1ccc(S(N)(=O)=O)cc1)C(=O)N2` [4b, 1H-indole-2,3-dione 3-[N-(4-sulfamoylphenyl)thiosemicarbazone], R = 5-CH3] the value was 54 nM; for `NS(=O)(=O)c1ccc(NC(=S)N/N=C2\C(=O)Nc3ccc(OC(F)(F)F)cc32)cc1` [4c, 1H-indole-2,3-dione 3-[N-(4-sulfamoylphenyl)thiosemicarbazone], R = 5-OCF3], 53.7 nM. As to `NS(=O)(=O)c1ccc(NC(=S)N/N=C2\C(=O)Nc3ccc(F)cc32)cc1` [4d, 1H-indole-2,3-dione 3-[N-(4-sulfamoylphenyl)thiosemicarbazone], R = 5-F], the Ki was 34.7 nM.

`NS(=O)(=O)c1ccc(NC(=S)N/N=C2\C(=O)Nc3ccc(Cl)cc32)cc1` [4e, 1H-indole-2,3-dione 3-[N-(4-sulfamoylphenyl)thiosemicarbazone], R = 5-Cl] showed a Ki of 41.3 nM. Under `NS(=O)(=O)c1ccc(NC(=S)N/N=C2\C(=O)Nc3ccc(Br)cc32)cc1` [4f, 1H-indole-2,3-dione 3-[N-(4-sulfamoylphenyl)thiosemicarbazone], R = 5-Br] stands 51.6 nM; under `NS(=O)(=O)c1ccc(NC(=S)N/N=C2\C(=O)Nc3ccc(I)cc32)cc1` [4g, 1H-indole-2,3-dione 3-[N-(4-sulfamoylphenyl)thiosemicarbazone], R = 5-I], 19.8 nM. For `NS(=O)(=O)c1ccc(NC(=S)N/N=C2\C(=O)Nc3ccc(S(=O)(=O)O)cc32)cc1` [4h, 1H-indole-2,3-dione 3-[N-(4-sulfamoylphenyl)thiosemicarbazone], R = 5-SO3Na] the value was 19.8 nM; for `NS(=O)(=O)c1ccc(NC(=S)N/N=C2\C(=O)Nc3ccc([N+](=O)[O-])cc32)cc1` [4i, 1H-indole-2,3-dione 3-[N-(4-sulfamoylphenyl)thiosemicarbazone], R = 5-NO2], 42.1 nM. `NS(=O)(=O)c1ccc(NC(=S)N/N=C2\C(=O)Nc3c(F)cccc32)cc1` [4j, 1H-indole-2,3-dione 3-[N-(4-sulfamoylphenyl)thiosemicarbazone], R = 7-F] came in with a Ki of 15 nM. Under `NS(=O)(=O)c1ccc(NC(=S)N/N=C2\C(=O)Nc3c(Cl)cccc32)cc1` [4k, 1H-indole-2,3-dione 3-[N-(4-sulfamoylphenyl)thiosemicarbazone], R = 7-Cl] stands 12.8 nM; under `NS(=O)(=O)c1ccc(NC(=S)N/N=C2\C(=O)Nc3c(Cl)cc(Cl)cc32)cc1` [4l, 1H-indole-2,3-dione 3-[N-(4-sulfamoylphenyl)thiosemicarbazone], R = 5,7-diCl], 6.4 nM; under `NS(=O)(=O)c1ccc(NC(=S)N/N=C2\C(=O)Nc3c(Br)cc(Br)cc32)cc1` [4m, 1H-indole-2,3-dione 3-[N-(4-sulfamoylphenyl)thiosemicarbazone], R = 5,7-diBr], 46.6 nM.
